Our source for the inhibition values is ChEMBL document CHEMBL4842385, “Indirubin Derivatives as Dual Inhibitors Targeting Cyclin-Dependent Kinase and Histone Deacetylase for Treating Cancer” (J Med Chem, 2021).

The first test has as its target CDK4/Cyclin D3 (Homo sapiens) (UniProt P11802+P30281). Conditions: dose 100.0 nM, time 10.0 min.
As a reminder, the inhibition is the relative decrease from the control value, in per cent. With `O=C(CCCCCCO/N=C1/C(=C2/C(=O)Nc3c2cccc3C(F)(F)F)Nc2ccccc21)NO`, the inhibition was -5.6%.

Regarding `O=C(CCCCO/N=C1/C(=C2/C(=O)Nc3ccccc32)Nc2ccccc21)NO`, the inhibition was found to be 21.1%.

Turning to `O=C(CCCCCCO/N=C1/C(=C2/C(=O)Nc3ccc(Cl)cc32)Nc2ccccc21)NO`, the inhibition turned out to be 18%.

In the case of `Cc1ccc2c(c1)/C(=C1/Nc3ccccc3/C1=N\OCCCCCCC(=O)NO)C(=O)N2`, the inhibition was determined as 1.3%.

`O=C(CCCCCCO/N=C1/C(=C2/C(=O)Nc3ccc(F)cc32)Nc2ccccc21)NO`: the inhibition is 17.2%.

On to `O=C(CCCCCO/N=C1/C(=C2/C(=O)Nc3ccccc32)Nc2ccccc21)NO`, for which the inhibition came to 10.2%.

For `Cc1ccc2c(c1)C(=N\OCCCCCCC(=O)NO)/C(=C1/C(=O)Nc3ccccc31)N2`, the inhibition was -1.7%.

For the compound `O=C(CO/N=C1/C(=C2/C(=O)Nc3ccc(Br)cc32)Nc2ccccc21)NO`, the inhibition came out at 54.5%.

Consider `O=C(CCCCCCC(=O)Nc1ccccc1)NO`, for which the inhibition was -5.8%.

Take `O=C(CCCCCCO/N=C1/C(=C2/C(=O)Nc3ccc(Br)cc32)Nc2ccccc21)NO`: the inhibition was -4.3%.

Another test addresses Histone deacetylase (Homo sapiens) (UniProt Q13547+O15379+Q9UBN7+Q92769+Q9UQL6+Q8WUI4+Q9BY41+Q96DB2+P56524+Q9UKV0+Q969S8). Conditions: HeLa, Nucleus, dose 1000.0 nM, time 1.0 hrs.
For `O=C(CCCCCCO/N=C1/C(=C2/C(=O)Nc3ccccc32)Nc2ccc(Br)cc21)NO`, the inhibition came out at 79.5%.

Turning to `COc1ccc2c(c1)C(=N\OCCCCCCC(=O)NO)/C(=C1/C(=O)Nc3ccccc31)N2`, the inhibition turned out to be 93.5%.

For `O=C(CCCCCCO/N=C1/C(=C2/C(=O)Nc3ccccc32)Nc2ccc(Cl)cc21)NO`, the inhibition stood at 90.8%.

For the compound `Cc1ccc2c(c1)NC(=C1\C(=O)Nc3ccccc31)/C2=N/OCCCCCCC(=O)NO`, the inhibition came out at 94.4%.

For `O=C(CCCCCCO/N=C1/C(=C2/C(=O)Nc3c2cccc3C(F)(F)F)Nc2ccccc21)NO`, the inhibition was determined as 8%.

For the compound `O=C(CCCCO/N=C1/C(=C2/C(=O)Nc3ccccc32)Nc2ccccc21)NO`, the inhibition is 58.3%.

Regarding `O=C(CCCCCCO/N=C1/C(=C2/C(=O)Nc3ccc(Cl)cc32)Nc2ccccc21)NO`, the inhibition amounted to 82.6%.

`Cc1ccc2c(c1)/C(=C1/Nc3ccccc3/C1=N\OCCCCCCC(=O)NO)C(=O)N2`: the inhibition came to 89.9%.

`O=C(CCCCCCO/N=C1/C(=C2/C(=O)Nc3ccc(F)cc32)Nc2ccccc21)NO`: the inhibition worked out at 82.7%.

With `O=C(CCCCCO/N=C1/C(=C2/C(=O)Nc3ccccc32)Nc2ccccc21)NO`, the inhibition stood at 89.9%.

`Cc1ccc2c(c1)C(=N\OCCCCCCC(=O)NO)/C(=C1/C(=O)Nc3ccccc31)N2`: the inhibition was 97.8%.

Consider `O=C(CCCCCCO/N=C1/C(=C2/C(=O)Nc3ccccc32)Nc2ccc([N+](=O)[O-])cc21)NO`, for which the inhibition stood at 76.6%.

For the compound `O=C(CO/N=C1/C(=C2/C(=O)Nc3ccc(Br)cc32)Nc2ccccc21)NO`, the inhibition is 17.5%.

Consider `O=C(CCCCCCO/N=C1/C(=C2/C(=O)Nc3ccc(Br)cc32)Nc2ccccc21)NO`, for which the inhibition amounted to 87.5%.

The next test addresses CDK6/cyclin D3 (Homo sapiens) (UniProt P30281+Q00534). Particulars: dose 100.0 nM, time 10.0 min.
`O=C(CCCCCCO/N=C1/C(=C2/C(=O)Nc3c2cccc3C(F)(F)F)Nc2ccccc21)NO`: the inhibition was 4%.

Take `O=C(CCCCO/N=C1/C(=C2/C(=O)Nc3ccccc32)Nc2ccccc21)NO`: the inhibition is 45.4%.

In the case of `O=C(CCCCCCO/N=C1/C(=C2/C(=O)Nc3ccc(Cl)cc32)Nc2ccccc21)NO`, the inhibition was determined as 63%.

Regarding `Cc1ccc2c(c1)/C(=C1/Nc3ccccc3/C1=N\OCCCCCCC(=O)NO)C(=O)N2`, the inhibition was -2.2%.

As to `O=C(CCCCCCO/N=C1/C(=C2/C(=O)Nc3ccc(F)cc32)Nc2ccccc21)NO`, the inhibition was 4.9%.

On to `O=C(CCCCCO/N=C1/C(=C2/C(=O)Nc3ccccc32)Nc2ccccc21)NO`, for which the inhibition came out at 28.8%.

With `Cc1ccc2c(c1)C(=N\OCCCCCCC(=O)NO)/C(=C1/C(=O)Nc3ccccc31)N2`, the inhibition is 2.7%.

For the compound `O=C(CO/N=C1/C(=C2/C(=O)Nc3ccc(Br)cc32)Nc2ccccc21)NO`, the inhibition was found to be 44.4%.

On to `O=C(CCCCCCC(=O)Nc1ccccc1)NO`, for which the inhibition was determined as 0.8%.

In the case of `O=C(CCCCCCO/N=C1/C(=C2/C(=O)Nc3ccc(Br)cc32)Nc2ccccc21)NO`, the inhibition is -2.3%.

The next test deals with CDK2/Cyclin A2 (Homo sapiens) (UniProt P24941+P20248). Conditions: dose 100.0 nM, time 10.0 min.
With `O=C(CCCCCCO/N=C1/C(=C2/C(=O)Nc3ccccc32)Nc2ccc(Br)cc21)NO`, the inhibition amounted to 0.5%.

Take `COc1ccc2c(c1)C(=N\OCCCCCCC(=O)NO)/C(=C1/C(=O)Nc3ccccc31)N2`: the inhibition was found to be 5.9%.

In the case of `O=C(CCCCCCO/N=C1/C(=C2/C(=O)Nc3ccccc32)Nc2ccc(Cl)cc21)NO`, the inhibition is -1.4%.

Take `Cc1ccc2c(c1)NC(=C1\C(=O)Nc3ccccc31)/C2=N/OCCCCCCC(=O)NO`: the inhibition turned out to be 4%.

Consider `O=C(CCCCCCO/N=C1/C(=C2/C(=O)Nc3c2cccc3C(F)(F)F)Nc2ccccc21)NO`, for which the inhibition was 3%.

Take `O=C(CCCCO/N=C1/C(=C2/C(=O)Nc3ccccc32)Nc2ccccc21)NO`: the inhibition came to 47.4%.

Take `O=C(CCCCCCO/N=C1/C(=C2/C(=O)Nc3ccc(Cl)cc32)Nc2ccccc21)NO`: the inhibition was determined as 54.9%.

`Cc1ccc2c(c1)/C(=C1/Nc3ccccc3/C1=N\OCCCCCCC(=O)NO)C(=O)N2`: the inhibition is 18.6%.

As for `O=C(CCCCCCO/N=C1/C(=C2/C(=O)Nc3ccc(F)cc32)Nc2ccccc21)NO`, the inhibition was 45.4%.

Regarding `O=C(CCCCCO/N=C1/C(=C2/C(=O)Nc3ccccc32)Nc2ccccc21)NO`, the inhibition was found to be 30%.

Take `Cc1ccc2c(c1)C(=N\OCCCCCCC(=O)NO)/C(=C1/C(=O)Nc3ccccc31)N2`: the inhibition is 11.6%.

Take `O=C(CCCCCCO/N=C1/C(=C2/C(=O)Nc3ccccc32)Nc2ccc([N+](=O)[O-])cc21)NO`: the inhibition turned out to be 6.2%.

As for `O=C(CCCCCCC(=O)Nc1ccccc1)NO`, the inhibition was found to be 2.9%.

With `O=C(CCCCCCO/N=C1/C(=C2/C(=O)Nc3ccc(Br)cc32)Nc2ccccc21)NO`, the inhibition turned out to be 5%.
